Source: patent US9393213B2, “Nanocrystals, compositions, and methods that aid particle transport in mucus” (Kala Pharmaceuticals, Inc., priority 2012, dated 2016)

Key:
[1] = assay type: physicochemical
Text: Tenofovir (TFV) is a potent antiviral drug used to treat infectious diseases. Due to the fact that tenofovir (TFV) is highly water soluble, a method was developed for formulating mucus-penetrating particles of tenofovir. […] In order to decrease the water solubility of TFV, interactions between cations and nucleotides/nucleotide analogs were exploited. TFV interacts very strongly with zinc cations (Zn), via the phosphonate group and the purine ring structure. This interaction with zinc causes TFV precipitation into crystals that can be stabilized with the coatings described herein, halting aggregation and determining the crystal surface properties. Additionally, Zn is naturally present in vaginal fluid and has known antimicrobial properties recently extended to include anti-HIV activity.

[2] = Acute vaginal toxicity by H&E staining 24 h after intravaginal administration; assay type: in vivo, DP mice
Description: Standard hematoxylin and eosin (H&E) staining was used to investigate potential toxic effects of intravaginally administered nanoparticles. […] The same (BD-) MPPs and (BD-) CPs that were used for distribution and retention studies were tested for toxicity.
Five μL of particles or control solutions were administered intravaginally to the DP mouse model. After 24 h, whole cervicovaginal tracts were obtained and fixed in 4% paraformaldehyde solution for 24 h. Tissues were placed in 70% ethanol and taken to the Johns Hopkins Reference Histology Laboratory for paraffin embedding and standard H&E staining.

[3] = system: IL-1β, IL-1α, TNF-α, and IL-6; test: Cytokine concentrations in cervicovaginal lavage after daily vaginal treatment for 7 days; settings: day 8 after daily dosing for seven days
Description: Because our ultimate goal was to test MPPs for protection against HSV-2, we compared an MPP formulation containing acyclovir monophosphate (ACVp) to N9, HEC placebo gel, PBS, and a gel vehicle (TFV vehicle) used in recent tenofovir clinical trials. Nanoparticle and control formulations were administered vaginally to Depo Provera-treated mice daily for seven days.
Twenty μL of each test agent was administered intravaginally to the DP mouse model once-a-day for seven (7) days. […] On the eighth day, each mouse was lavaged twice with 50 μL of PBS. Each lavage sample was diluted with an additional 200 μL of PBS and centrifuged to remove the mucus plug. Supernatant (200 μL) was removed and split into 50 μL for each of the four (IL-1β, IL-1α, TNF-α, and IL-6) Quantikine ELISA kits (R&D Systems, Inc.). ELISAs were conducted per the manufacturer's instructions.

[4] = Text: [formula] where <Vmean> is the ensemble average trajectory-mean velocity, Vmean is the velocity of an individual particle averaged over its trajectory, the sample is the particle of interest, the negative control is a 200 nm carboxylated polystyrene particle, and the positive control is a 200 nm polystyrene particle densely PEGylated with 2 kDa-5 kDa PEG.
For instance, a fluorescent microscope equipped with a CCD camera can be used to capture 15 s movies at a temporal resolution of 66.7 ms (15 frames/s) under 100× magnification from several areas within each sample for each type of particles: sample, negative control, and positive control.
In a typical experiment, ≦0.5 uL of a nanosuspension (diluted if necessary to the surfactant concentration of ˜1%) was added to 20 μl of fresh CVM along with controls. […] Using a fluorescent microscope equipped with a CCD camera, 15 s movies were captured at a temporal resolution of 66.7 ms (15 frames/s) under 100× magnification from several areas within each sample for each type of particles: sample (pyrene), negative control, and positive control (natural blue fluorescence of pyrene allowed observing of pyrene nanoparticles separately from the controls). […] To enable easy comparison between different samples and normalize velocity data with respect to natural variability in penetrability of CVM samples, relative sample velocity <Vmean>rel, was determined according to the formula shown in Equation 1.
CVM was collected by inserting a Softcup® menstrual collection cup into the vaginal tract as described by the product literature for between 30 seconds and 2 minutes. After removal the CVM was then collected from the Softcup® by gentle centrifugation at ˜30×G to ˜120×G in a 50 mL centrifuge tube. In Example 1, CVM was used undiluted and fresh (stored for no longer than 7 days under refrigerated conditions). Barrier and transport of all CVM samples used in Example 1 were verified with negative (200 nm carboxylated polystyrene particles) and positive (200 nm polystyrene particles modified with PEG 5K) controls. In Example 2, CVM was lyophilized and reconstituted. In Example 2, mucus was frozen at −50° C. and then lyophilized to dryness. Samples were then stored at −50° C. Before use, the mucus was reconstituted by grinding the solid into a fine powder using a mortar and pestle followed by water addition to a final volume equal to the original volume to 2 times the original volume. The reconstituted mucus was then incubated at 4° C. for 12 hours and used as described in Example 2. Barrier and transport of all CVM samples used in Example 2 were verified with negative (200 nm carboxylated polystyrene particles) and positive (F127 coated 200 nm polystyrene particles) controls.

HSV-2 strain G = test: HSV-2 vaginal challenge in mice; assay type: in vivo, CF-1 mice; settings: intravaginal 30 min before challenge
Description: Female 6-8 week old CF-1 mice were subcutaneously injected with medroxyprogesterone acetate, and one week later received 20 μl of test agent or PBS intravaginally with a fire-polished positive displacement capillary pipette (Wiretrol, Drummond Scientific). Thirty minutes later, mice were challenged with 10 uL of inoculum containing HSV-2 strain G (ATCC #VR-734, 2.8×10^7 TCID50 per mL). […] Mice were assessed for infection three days later after inoculation by culturing a PBS vaginal lavage on human foreskin fibroblasts (Diagnostic Hybrids, MRHF Lot #440318W), as described previously (R. A. Cone, T. Hoen, X. Wong, R. Abusuwwa, D. J. Anderson, T. R. Moench, Vaginal microbicides: detecting toxicities in vivo that paradoxically increase pathogen transmission. BMC Infect Dis 6, 90 (2006)).
Both the drug and the virus were administered intravaginally.
ACVp nanoparticles were formulated with the same muco-inert coating used for all other studies. […] To study the distribution and retention of nanoparticles at the vaginal mucosal surface and the effects of repeated dosing, 6-8 week old CF-1 mice (Harlan) were used. Mice were housed in a reversed light cycle facility (12 h light/12 h dark). […] Journal of Virology 79, 3107-3116 (2005)).
All data are presented as a mean with standard error of the mean (SEM) indicated. Statistical significance was determined by a two-tailed, Student's t-test (α=0.05) assuming unequal variance. In the case of HSV-2 challenge, statistical significance was determined using Fisher's exact test, two-tailed distribution.

HSV-2 = settings: single vaginal pretreatment with 50 mg/mL (5%); guinea pigs; cited from earlier work

With `C[C@H](Cn1cnc2c(N)ncnc21)OCP(=O)(O)O` [TFV, tenofovir] the water solubility [1] was “at least 15 mg/mL”.

For Nonoxynol-9 [N9], the “inflammation in H&E-stained vaginal tissue” value [2] was “acute inflammation”, the “IL-1α level in vaginal lavage” value [3] was “elevated” and the “IL-1β level in vaginal lavage” value [3] was “elevated”.

In the case of Tween 80, the “Sample (relative) <Vmean>rel” value [4] is reported as 0.17 and the “Sample <Vmean>” value [4] is reported as 0.94 um/s.

For Tyloxapol, the “Sample (relative) <Vmean>rel” value [4] was −0.02 and the “Sample <Vmean>” value [4] was 0.42 um/s.

For acyclovir monophosphate [Soluble ACV], the “% Infected” value (HSV-2 strain G; 1 mg/mL in PBS) was 84.0%, the “# Infected” value (HSV-2 strain G; 1 mg/mL in PBS, 25 mice) was 21 and the “% Infected” value (HSV-2 strain G; 1 mg/mL in PBS, listed as Soluble ACVp) was 84%. The “% Infected” value (HSV-2 strain G; 1 mg/mL in PBS, listed as soluble ACVp) was 84.0%, the “% Infected” value (HSV-2 strain G; 10 mg/mL in PBS) was 62.0% and the “# Infected” value (HSV-2 strain G; 10 mg/mL in PBS, 100 mice) was 62. For the same compound, the “% Infected” value (HSV-2 strain G; 10 mg/mL in PBS, listed as Soluble ACVp) was 62%, the “% Infected” value (HSV-2 strain G; 10 mg/mL in PBS, listed as soluble ACVp) was 62.0% and the “% Infected” value (HSV-2 strain G; 10 mg/mL in Water) was 69.3%. For the same compound, the “# Infected” value (HSV-2 strain G; 10 mg/mL in Water, 75 mice) was 52 and the “animals infected compared to controls” value (HSV-2) was 70%.
